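96-well plates; 48 h exposure; 5 concentrations. Endpoints by linear interpolation between flanking doses. Not reached: highest tested concentration assigned. TGI: concentration producing complete growth inhibition.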
Columns and labels:
Experiment in all cases: DTP human tumour cell line panel, 48 h
[1] = test system: HCT-15 colon
[2] = test system: MOLT-4 leukemia
[3] = test system: MCF7 breast
[4] = test system: SF-295 CNS
[5] = test system: HT29 colon
[6] = test system: SK-MEL-2 melanoma
[7] = test system: PC-3 prostate
[8] = test system: ACHN renal
[9] = test system: 786-0 renal
[10] = test system: EKVX NSCLC
[11] = test system: UO-31 renal
[12] = test system: RXF 393 renal
[13] = test system: OVCAR-5 ovarian
[14] = test system: TK-10 renal
[15] = test system: A549 NSCLC
[16] = test system: U251 CNS
[17] = test system: SR leukemia
[18] = test system: HCT-116 colon
[19] = test system: HS 578T breast
[20] = test system: KM12 colon
[21] = test system: A498 renal
[22] = test system: UACC-62 melanoma
[23] = test system: OVCAR-3 ovarian
[24] = test system: NCI/ADR-RES ovarian
[25] = test system: K-562 leukemia
[26] = test system: SN12C renal
[27] = test system: T-47D breast
[28] = test system: MDA-MB-231 breast
[29] = test system: M14 melanoma
[30] = test system: OVCAR-4 ovarian
[31] = test system: RPMI-8226 leukemia
[32] = test system: UACC-257 melanoma
[33] = test system: CAKI-1 renal
[34] = test system: SF-268 CNS
[35] = test system: MDA-N
[36] = test system: MDA-MB-435
[37] = test system: BT-549 breast
[38] = test system: DU-145 prostate
[39] = test system: NCI-H460 lung
[40] = test system: SNB-19 CNS
[41] = test system: NCI-H23 lung
[42] = test system: COLO 205 colon
[43] = test system: SK-OV-3 ovarian
[44] = test system: SF-539 CNS
[45] = test system: IGROV1 ovarian
[46] = test system: CCRF-CEM leukemia
[47] = test system: HCC-2998 colon
[48] = test system: MALME-3M melanoma
[49] = test system: HL-60(TB) leukemia
[50] = test system: HOP-92 NSCLC
[51] = test system: LOX IMVI melanoma
[52] = test system: NCI-H522 lung
[53] = test system: OVCAR-8 ovarian
[54] = test system: SK-MEL-5 melanoma
[55] = test system: SK-MEL-28 melanoma
[56] = test system: SNB-75 CNS
[57] = test system: SW-620 colon
[58] = test system: NCI-H226 lung
[59] = test system: HOP-62 NSCLC

## COc1ccc(OC)c(C23CCCC(C2)N(C)CC3)c1 (stereo unspecified)
[1]
  TGI: > 100 µM
[2]
  TGI: > 100 µM
[3]
  TGI: 32.1 µM
[4]
  TGI: 66.2 µM
[5]
  TGI: 49.1 µM
[6]
  TGI: 53 µM
[7]
  TGI: 41.2 µM
[8]
  TGI: 78.1 µM
[9]
  TGI: 85.3 µM
[10]
  TGI: > 100 µM
[11]
  TGI: > 100 µM
[12]
  TGI: 61.2 µM
[13]
  TGI: > 100 µM
[14]
  TGI: > 100 µM
[15]
  TGI: > 100 µM
[16]
  TGI: 27.6 µM
[17]
  TGI: 44.7 µM
[18]
  TGI: 41.3 µM
[19]
  TGI: > 100 µM
[20]
  TGI: 33.5 µM
[21]
  TGI: 89.9 µM
[22]
  TGI: 46 µM
[23]
  TGI: 46.7 µM
[24]
  TGI: > 100 µM
[25]
  TGI: 43 µM
[26]
  TGI: > 100 µM
[27]
  TGI: > 100 µM
[28]
  TGI: > 100 µM
[29]
  TGI: 34.1 µM
[30]
  TGI: 62.1 µM
[31]
  TGI: 42.2 µM
[32]
  TGI: > 100 µM
[33]
  TGI: > 100 µM
[34]
  TGI: > 100 µM
[35]
  TGI: 74.6 µM
[36]
  TGI: 37.9 µM
[37]
  TGI: > 100 µM
[38]
  TGI: 91.9 µM
[39]
  TGI: 52 µM
[40]
  TGI: 49 µM
[41]
  TGI: > 100 µM

## C=C(C)C1CC2(C)C(C)CC(OC(=O)/C(C)=C\C)CC2C(OC(=O)/C(C)=C\C)C1O (stereo unspecified)
[1]
  TGI: > 100 µM
[42]
  TGI: 48.4 µM
[43]
  TGI: > 100 µM
[2]
  TGI: 60.3 µM
[3]
  TGI: > 100 µM
[44]
  TGI: > 100 µM
[5]
  TGI: > 100 µM
[6]
  TGI: > 100 µM
[7]
  TGI: > 100 µM
[8]
  TGI: > 100 µM
[45]
  TGI: > 100 µM
[9]
  TGI: > 100 µM
[10]
  TGI: > 100 µM
[46]
  TGI: 45.8 µM
[11]
  TGI: > 100 µM
[47]
  TGI: > 100 µM
[13]
  TGI: > 100 µM
[14]
  TGI: > 100 µM
[15]
  TGI: > 100 µM
[16]
  TGI: > 100 µM
[48]
  TGI: > 100 µM
[17]
  TGI: 45.1 µM
[18]
  TGI: > 100 µM
[19]
  TGI: > 100 µM
[20]
  TGI: > 100 µM
[49]
  TGI: 43.6 µM
[50]
  TGI: > 100 µM
[51]
  TGI: > 100 µM
[21]
  TGI: > 100 µM
[22]
  TGI: > 100 µM
[24]
  TGI: > 100 µM
[26]
  TGI: > 100 µM
[52]
  TGI: > 100 µM
[27]
  TGI: > 100 µM
[28]
  TGI: > 100 µM
[29]
  TGI: > 100 µM
[53]
  TGI: > 100 µM
[30]
  TGI: > 100 µM
[32]
  TGI: > 100 µM
[54]
  TGI: 43.7 µM
[33]
  TGI: > 100 µM
[34]
  TGI: > 100 µM
[55]
  TGI: > 100 µM
[35]
  TGI: > 100 µM
[56]
  TGI: > 100 µM
[36]
  TGI: > 100 µM
[57]
  TGI: > 100 µM
[37]
  TGI: > 100 µM
[38]
  TGI: > 100 µM
[39]
  TGI: > 100 µM
[40]
  TGI: > 100 µM
[41]
  TGI: > 100 µM
[58]
  TGI: > 100 µM

## c1ccc(C2SCc3nc4cc5ccccc5cc4n32)cc1 (stereo unspecified)
[1]
  TGI: > 100 µM
[42]
  TGI: > 100 µM
[43]
  TGI: > 100 µM
[2]
  TGI: > 100 µM
[3]
  TGI: > 100 µM
[4]
  TGI: > 100 µM
[44]
  TGI: > 100 µM
[5]
  TGI: > 100 µM
[6]
  TGI: > 100 µM
[7]
  TGI: > 100 µM
[8]
  TGI: > 100 µM
[45]
  TGI: > 100 µM
[9]
  TGI: > 100 µM
[10]
  TGI: > 100 µM
[46]
  TGI: > 100 µM
[11]
  TGI: > 100 µM
[47]
  TGI: > 100 µM
[12]
  TGI: > 100 µM
[13]
  TGI: > 100 µM
[14]
  TGI: > 100 µM
[15]
  TGI: > 100 µM
[16]
  TGI: > 100 µM
[48]
  TGI: > 100 µM
[17]
  TGI: > 100 µM
[18]
  TGI: > 100 µM
[19]
  TGI: > 100 µM
[20]
  TGI: > 100 µM
[50]
  TGI: > 100 µM
[51]
  TGI: > 100 µM
[22]
  TGI: > 100 µM
[23]
  TGI: > 100 µM
[24]
  TGI: > 100 µM
[25]
  TGI: > 100 µM
[26]
  TGI: > 100 µM
[27]
  TGI: > 100 µM
[28]
  TGI: > 100 µM
[59]
  TGI: > 100 µM
[29]
  TGI: > 100 µM
[53]
  TGI: > 100 µM
[30]
  TGI: > 100 µM
[31]
  TGI: > 100 µM
[32]
  TGI: > 100 µM
[33]
  TGI: > 100 µM
[34]
  TGI: > 100 µM
[55]
  TGI: > 100 µM
[35]
  TGI: > 100 µM
[56]
  TGI: > 100 µM
[36]
  TGI: > 100 µM
[57]
  TGI: > 100 µM
[37]
  TGI: > 100 µM
[38]
  TGI: > 100 µM
[40]
  TGI: > 100 µM
[41]
  TGI: > 100 µM
[58]
  TGI: > 100 µM

## O=C(O)c1ccccc1CC1Cc2ccc3c(c2C1=O)CCC3 (stereo unspecified)
[1]
  TGI: > 100 µM
[42]
  TGI: > 100 µM
[43]
  TGI: > 100 µM
[2]
  TGI: > 100 µM
[3]
  TGI: > 100 µM
[4]
  TGI: > 100 µM
[44]
  TGI: > 100 µM
[5]
  TGI: > 100 µM
[6]
  TGI: > 100 µM
[7]
  TGI: > 100 µM
[8]
  TGI: > 100 µM
[45]
  TGI: > 100 µM
[9]
  TGI: > 100 µM
[10]
  TGI: > 100 µM
[46]
  TGI: > 100 µM
[11]
  TGI: > 100 µM
[47]
  TGI: > 100 µM
[12]
  TGI: > 100 µM
[13]
  TGI: > 100 µM
[14]
  TGI: > 100 µM
[15]
  TGI: > 100 µM
[16]
  TGI: > 100 µM
[48]
  TGI: > 100 µM
[17]
  TGI: > 100 µM
[18]
  TGI: > 100 µM
[19]
  TGI: > 100 µM
[20]
  TGI: > 100 µM
[49]
  TGI: > 100 µM
[50]
  TGI: > 100 µM
[51]
  TGI: > 100 µM
[22]
  TGI: > 100 µM
[23]
  TGI: > 100 µM
[24]
  TGI: > 100 µM
[25]
  TGI: > 100 µM
[26]
  TGI: > 100 µM
[52]
  TGI: > 100 µM
[27]
  TGI: > 100 µM
[28]
  TGI: > 100 µM
[59]
  TGI: > 100 µM
[29]
  TGI: > 100 µM
[53]
  TGI: > 100 µM
[30]
  TGI: > 100 µM
[31]
  TGI: > 100 µM
[32]
  TGI: > 100 µM
[54]
  TGI: > 100 µM
[33]
  TGI: > 100 µM
[34]
  TGI: > 100 µM
[55]
  TGI: > 100 µM
[35]
  TGI: > 100 µM
[56]
  TGI: > 100 µM
[36]
  TGI: > 100 µM
[57]
  TGI: > 100 µM
[37]
  TGI: > 100 µM
[38]
  TGI: > 100 µM
[39]
  TGI: > 100 µM
[40]
  TGI: > 100 µM
[41]
  TGI: > 100 µM
[58]
  TGI: > 100 µM
